US9550811B2, “Peptide scaffold design” (BIONOR IMMUNO AS, priority 2010, dated 2017)
Like-named read-outs stand apart in the source and are kept apart here. Where no end group is shown, it is not given here. [ ]: non-standard residue; d: D form. Nle = CCCC[C@H](N)C(=O)O

Experiments:
DC-cells = assay: Cell penetration assay: staining for biotinylated peptides, dendritic cells gated as CD11c+; type: cell-based, human; details: low concentration of peptides (208 uM)
Experimental: A set of peptides were biotinylated on N-terminal, and different combinations of aminoacids, with respect to length and type, were added to the sequence box X^1, X^3 and X^4 in the peptides as illustrated by the diagram below. The peptides were tested on cells grown from one individual blood donor.
96-well U-bottom polystyrene plates (NUNC, cat no: 163320) were used for staining of human PBMCs. Briefly, 8 ul of N- or C-terminally biotinylated peptides according to table 1 or table 2 (i.e. 5 mM, 2.5 mM & 1.25 mM tested for each peptide) were incubated at 37° C. for 2 h with 40 ul of PBMC (12.5×10^6 cells/ml) from blood donors. Cells were then washed 3× with 150 ul of Cellwash (BD, cat no: 349524), followed by resuspension of each cell pellet with 100 ul of Trypsin-EDTA (Sigma, cat no: T4424), then incubated at 37° C. for 5 min. Trypsinated cells were then washed 3× with 150 ul of Cellwash (BD, cat no: 349524), followed by resuspension with BD Cytofix/Cytoperm™ plus (BD, cat no: 554715), then incubated at 4° C. for 20 min according to manufacturer. Cells were then washed 2× with 150 ul PermWash (BD, cat no: 554715). Cells were then stained with Streptavidin-APC (BD, cat no: 554067) & Anti-hCD11c (eBioscience, cat no: 12-0116) according to manufacturer at 4° C. for 30 min aiming to visualize biotinylated peptides & dendritic cells, respectively. Cells were then washed 3× with 150 ul PermWash, followed by resuspension in staining buffer (BD, cat no: 554656) before flow cytometry. Dendritic cells were gated as CD11c+ events outside lymphocyte region (i.e. higher FSC & SSC signals than lymphocytes). 200 000 total cells were acquired on a FACSCanto II flow cytometer with HTS loader, and histograms for both total cells & dendritic cells with respect to peptide-fluorescence (i.e. GeoMean) were prepared.
As shown in table 4 the peptides according to the invention had the ability to allocate through the cell membrane.

human PBMCs = type: cell-based; details: for Geomean value (peptide-fluorescence): With Cytofix/Cytoperm and trypsination, BC20

Row | Sequence | Results on DC-cells (geomean peptide-fluorescence) (DC-cells; BC 16) | Results on DC-cells (geomean peptide-fluorescence) (DC-cells; BC43) | also measured
1 | BRGLEPLVIAGILARRGSLVGLLHIVL [BI100260] | 47846 |  | 
2 | BRGSDPLVVAASIVRRASIVGILHLIL [BI100260b] | 37702 |  | 
3 | BRGYIPLVGAPLGRRVARALAHGVRV [SP7] | 16064 | 21414 | Geomean value (peptide-fluorescence) (human PBMCs; concentration 104 μM): 2766; Geomean value (peptide-fluorescence) (human PBMCs; concentration 208 μM): 10481; Geomean value (peptide-fluorescence) (human PBMCs; concentration 417 μM): 30503; Geomean value (peptide-fluorescence) (human PBMCs; concentration 833 μM): 47922
4 | BRGYIPLVGAPLGRRVARALAHGVRV [SP7_c] | 20041 | 11832 | 
5 | BRIAYERMCNILLBRGKFQTAAQRA [190b] | 12391 | 20444 | 
6 | BRLIFLARSALILBGRSALILRGSVAHK [120b] | 44185 |  | 
7 | BRLIFLARSALIVRGSVAHKS [100-12] | 24792 | 45622 | 
8 | BRRLFFKTITRLFBHGLRRLLSTEGVPNSZ [BI10026] | 65196 | 43536 | 
9 | BRTAYERZCNILBRGRFQTVVQBA [compound 17] |  |  | Intracellular staining, median (human PBMCs): 20.77
10 | BRTAYERZCNILBRGRFQTVVQBA [compound 190] | 12906 |  | 
11 | EDLIFLARSALILRGSVAHKS [100-22b] | 43537 | 28780 | 
12 | EEGYIPLVGAPLGEEVARALAHGVRV [SP14] | 3704 | 1629 | Geomean value (peptide-fluorescence) (human PBMCs; concentration 104 μM): 62; Geomean value (peptide-fluorescence) (human PBMCs; concentration 208 μM): 392; Geomean value (peptide-fluorescence) (human PBMCs; concentration 417 μM): 682; Geomean value (peptide-fluorescence) (human PBMCs; concentration 833 μM): 1059
13 | EEGYIPLVGAPLGRRVARALAHGVRV [SP16] | 5730 | 3656 | Geomean value (peptide-fluorescence) (human PBMCs; concentration 104 μM): 505; Geomean value (peptide-fluorescence) (human PBMCs; concentration 208 μM): 1260; Geomean value (peptide-fluorescence) (human PBMCs; concentration 417 μM): 2240; Geomean value (peptide-fluorescence) (human PBMCs; concentration 833 μM): 4558
14 | GGGQIVGGVYLLPRRGPRLGVRATR [310-11n] | 5436 |  | 
15 | GGGYIPLVGAPLGGGVARALAHGVRV [SP15] | 5076 | 2539 | Geomean value (peptide-fluorescence) (human PBMCs; concentration 104 μM): 600; Geomean value (peptide-fluorescence) (human PBMCs; concentration 208 μM): 848; Geomean value (peptide-fluorescence) (human PBMCs; concentration 417 μM): 477; Geomean value (peptide-fluorescence) (human PBMCs; concentration 833 μM): 1810
16 | GYIPLVGAPLGGVARALAHGVRV [51n] | 5551 | 7721 | 
17 | GYIPLVGAPLGGVARALAHGVRV [SP1_C] (GYIPLVGAPLGGVARALAHGVRV-NH2) | 9234 |  | 
18 | IAYERMCNILKGKFQTAAQRA [190n] | 18616 | 23383 | 
19 | KALGPAATLEEMMTACQGVG [N13] | 7982 | 5953 | 
20 | KKGYIPLVGAPLGKKVARALAHGVRV [SP11] | 6490 | 13230 | Geomean value (peptide-fluorescence) (human PBMCs; concentration 104 μM): 601; Geomean value (peptide-fluorescence) (human PBMCs; concentration 208 μM): 1277; Geomean value (peptide-fluorescence) (human PBMCs; concentration 417 μM): 3562; Geomean value (peptide-fluorescence) (human PBMCs; concentration 833 μM): 8262
21 | KKGYIPLVGAPLGKKVARALAHGVRV [SP11_c] (KKGYIPLVGAPLGKKVARALAHGVRV-NH2) | 5371 | 7878 | 
22 | LFFKCIYRLFKHGLKRGPSTEGVPESM [BI10024b] | 26892 | 13002 | 
23 | PEVIPMFSALSEGATPQDLNTMLN [N10] | 4597 |  | 
24 | RFIIPXFTALSGGRRALLYGATPYAIG (RFIIP[Nle]FTALSGGRRALLYGATPYAIG) [V10] | 45430 |  | 
25 | RGYIPLVGAPLGKKKVARALAHGVRV [SP9] | 8356 | 10084 | Geomean value (peptide-fluorescence) (human PBMCs; concentration 104 μM): 1268; Geomean value (peptide-fluorescence) (human PBMCs; concentration 208 μM): 2945; Geomean value (peptide-fluorescence) (human PBMCs; concentration 417 μM): 6060; Geomean value (peptide-fluorescence) (human PBMCs; concentration 833 μM): 11344
26 | RGYIPLVGAPLGKKKVARALAHGVRV [SP9_c] (RGYIPLVGAPLGKKKVARALAHGVRV-NH2) | 6180 | 7758 | 
27 | RGYIPLVGAPLGRRRVARALAHGVRV [SP4_c] | 20673 | 30786 | 
28 | RGYIPLVGAPLGRRRVARALAHGVRV [SP10_c] (RGYIPLVGAPLGRRRVARALAHGVRV-NH2) | 6904 |  | 

Row | Sequence | Results on DC-cells (geomean peptide-fluorescence) (DC-cells; BC 16) | Results on DC-cells (geomean peptide-fluorescence) (DC-cells; BC43) | also measured
29 | RGYIPLVGAPLGRRVARALAHGVRV [SP3_c] (RGYIPLVGAPLGRRVARALAHGVRV-NH2) | 18505 | 26308 | 
30 | RGYIPLVGAPLGRRVARALAHGVRV [SP24] (RGYIPLVGAPLGRRVARALAHGVRV-NH2) | 18181 | 63639 | 
31 | RNIVPZVVTARRNIVPZVVTAB [BI-050sc5] | 13648 | 15549 | 
32 | RNLVPMVATVBRRNLVPMVATVB [BI-050sc2] | 6019 | 11584 | 
33 | RNLVPMVATVBRRNLVPMVATVB [compound 18] |  |  | Intracellular staining, median (human PBMCs): 3.86
34 | RNLVPMVATVRRNLVPMVATVB [BI-050sc1] | 6056 | 6160 | 
35 | RRGGGQIVGGVYLLPRRGPRLGVRATR [310-11-n-sc] | 25236 |  | 
36 | RRGYIPLVGAPLGBGRVARALAHGVRV [SP2_c] | 323 | 13341 | 
37 | RRGYIPLVGAPLGLRRVARALAHGVRV [SP17_c] | 11830 |  | 
38 | RRGYIPLVGAPLGRRRVARALAHGVRV [SP6_c] (RRGYIPLVGAPLGRRRVARALAHGVRV-NH2) | 17964 | 38487 | 
39 | RRGYIPLVGAPLGRRVARALAHGVRV [SP5_c] (RRGYIPLVGAPLGRRVARALAHGVRV-NH2) | 16908 | 24403 | 
40 | RRNYVTGNIPGBRGITFSIFLIVS [SP61_2] | 128330 | 150491 | 
41 | RRRGYIPLVGAPLGBRVARALAHGVRV [SP8_c] | 9159 | 23763 | 
42 | RRVTGNIPGSTYSGBRGITFSIYLIVS [SP25] | 11552 |  | 
43 | SAYERMCNILKGKFQTAAQRAMM [18b] | 29740 | 33597 | 
44 | WGYIPLVGAPLGRRVARALAHGVRV [SP12_c] (WGYIPLVGAPLGRRVARALAHGVRV-NH2) | 37100 | 43386 | 
45 | WWGGGQIVGGVYLLPRRGPRLGVRAT [SP11b_1] | 64047 |  | 
46 | WWGYIPLVGAPLGRRRVARALAHGVRV [SP22] | 61597 | 18624 | 
47 | WWGYIPLVGAPLGRRVARALAHGVRV [SP13_c] (WWGYIPLVGAPLGRRVARALAHGVRV-NH2) |  | 60307 | 
48 | WWGYIPLVGAPLGRRVARALAHGVRV [SP21] (WWGYIPLVGAPLGRRVARALAHGVRV-NH2) | 26525 | 4294 | 
49 | WWGYIPLVGAPLGRVARALAHGVRV [SP23] | 17084 | 12801 | 
50 | WWGYLPAVGAPIRRVIRVIAHGLRL [SP51_1*] | 66582 |  | 
51 | WWIRNLGRVIETLTRRLZGYIPLIGA [SP42_1] | 73973 |  | 
52 | WWNYVTGNIPGBRGITFSIFLIVS [SP61_3] | 47182 | 36803 | 
53 | WWNYVTGNIPGRRGITFSIFLIVS [SP61_4] | 12829 |  | 
54 | WWSRNLGKVIDTLTCRRLMGYIPLVGA [SP42b_1] | 17628 |  | 
55 | YGRKKRRQRRR [compound 4, Positive control (tat), reference compound] |  |  | Intracellular staining, median (human PBMCs): 4.43
